Assay results reported in ChEMBL document CHEMBL4190382, “Targeting lysine specific demethylase 4A (KDM4A) tandem TUDOR domain - A fragment based approach” (Bioorg Med Chem Lett, 2018).

What was measured:
[1] = biological target: T1, Lysine-specific demethylase 4C (Homo sapiens, UniProt Q9H3R0); assay: Binding affinity to 6His-tagged and human KDM4C tandem TUDOR domain (874 to 990 residues) expressed in Escherichia coli BL21(DE3)-T1R by ITC method
T1 sequence (Q9H3R0 whole entry): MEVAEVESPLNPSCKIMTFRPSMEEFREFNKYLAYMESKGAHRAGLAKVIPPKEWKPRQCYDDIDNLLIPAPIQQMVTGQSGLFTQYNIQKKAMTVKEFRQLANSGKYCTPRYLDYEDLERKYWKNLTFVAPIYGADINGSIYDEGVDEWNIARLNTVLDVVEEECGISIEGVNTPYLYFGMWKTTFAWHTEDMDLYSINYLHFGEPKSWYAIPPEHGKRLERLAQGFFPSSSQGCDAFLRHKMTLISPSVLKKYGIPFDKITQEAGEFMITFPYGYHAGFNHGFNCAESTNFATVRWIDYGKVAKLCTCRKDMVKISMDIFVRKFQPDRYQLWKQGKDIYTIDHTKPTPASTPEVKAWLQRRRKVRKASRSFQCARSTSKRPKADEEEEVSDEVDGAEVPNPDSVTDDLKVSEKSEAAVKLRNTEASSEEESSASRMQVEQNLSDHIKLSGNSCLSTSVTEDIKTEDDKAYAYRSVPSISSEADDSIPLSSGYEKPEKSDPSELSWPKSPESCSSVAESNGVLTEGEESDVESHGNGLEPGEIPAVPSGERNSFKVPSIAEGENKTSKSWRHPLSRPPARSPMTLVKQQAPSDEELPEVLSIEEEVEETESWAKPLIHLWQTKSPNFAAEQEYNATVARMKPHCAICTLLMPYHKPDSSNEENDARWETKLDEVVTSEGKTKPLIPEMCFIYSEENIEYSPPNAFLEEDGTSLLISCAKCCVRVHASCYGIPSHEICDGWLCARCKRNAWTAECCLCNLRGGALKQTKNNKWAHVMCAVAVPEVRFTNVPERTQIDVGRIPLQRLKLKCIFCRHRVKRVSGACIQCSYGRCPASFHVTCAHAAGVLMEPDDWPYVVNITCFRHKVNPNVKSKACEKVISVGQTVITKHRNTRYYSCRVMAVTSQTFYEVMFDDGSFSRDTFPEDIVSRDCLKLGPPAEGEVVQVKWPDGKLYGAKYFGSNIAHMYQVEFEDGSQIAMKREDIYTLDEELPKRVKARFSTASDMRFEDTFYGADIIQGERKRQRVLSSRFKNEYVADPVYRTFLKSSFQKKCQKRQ

[2] = biological target: T2, Lysine-specific demethylase 4B (Homo sapiens, UniProt O94953); assay: Binding affinity to 6His-tagged and human KDM4B tandem TUDOR domain (916 to 1030 residues) expressed in Escherichia coli BL21(DE3)-T1R by ITC method
T2 sequence (O94953 whole entry): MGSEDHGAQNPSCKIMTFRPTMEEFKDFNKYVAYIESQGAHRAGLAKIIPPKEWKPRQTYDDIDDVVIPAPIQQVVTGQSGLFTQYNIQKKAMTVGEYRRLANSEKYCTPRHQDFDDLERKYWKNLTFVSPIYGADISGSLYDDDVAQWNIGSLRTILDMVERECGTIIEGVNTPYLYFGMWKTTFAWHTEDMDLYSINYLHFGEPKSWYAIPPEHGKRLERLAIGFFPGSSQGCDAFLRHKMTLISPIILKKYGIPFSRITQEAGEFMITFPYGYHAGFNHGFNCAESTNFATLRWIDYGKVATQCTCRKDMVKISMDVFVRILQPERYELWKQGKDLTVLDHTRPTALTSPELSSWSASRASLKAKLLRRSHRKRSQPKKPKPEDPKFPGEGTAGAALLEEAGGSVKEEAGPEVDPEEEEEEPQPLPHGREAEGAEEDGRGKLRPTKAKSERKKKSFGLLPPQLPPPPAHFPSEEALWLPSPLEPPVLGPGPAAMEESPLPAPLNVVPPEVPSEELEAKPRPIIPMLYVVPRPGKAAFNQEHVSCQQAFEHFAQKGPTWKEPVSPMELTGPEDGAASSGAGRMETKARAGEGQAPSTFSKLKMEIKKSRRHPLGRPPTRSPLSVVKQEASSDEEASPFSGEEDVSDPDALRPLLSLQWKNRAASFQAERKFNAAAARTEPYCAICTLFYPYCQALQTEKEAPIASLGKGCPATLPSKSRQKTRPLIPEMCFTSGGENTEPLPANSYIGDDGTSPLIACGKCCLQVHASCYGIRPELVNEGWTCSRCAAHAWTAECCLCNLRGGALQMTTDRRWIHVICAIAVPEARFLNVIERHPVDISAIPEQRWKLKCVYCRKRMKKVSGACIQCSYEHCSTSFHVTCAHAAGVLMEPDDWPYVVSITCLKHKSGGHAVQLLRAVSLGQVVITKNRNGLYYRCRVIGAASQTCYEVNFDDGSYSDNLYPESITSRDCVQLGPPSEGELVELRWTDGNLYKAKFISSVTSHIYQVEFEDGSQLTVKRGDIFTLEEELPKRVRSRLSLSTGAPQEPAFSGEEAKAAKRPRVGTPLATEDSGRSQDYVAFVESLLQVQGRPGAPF

TP53-binding protein 1 = TP53-binding protein 1 (Homo sapiens, UniProt Q12888); assay: Binding affinity to 6His-tagged and human 53BP1 tandem TUDOR domain (1488 to 1611 residues) expressed in Escherichia coli BL21(DE3)-T1R by ITC method
Chain of TP53-binding protein 1 (Q12888 whole entry, the tested form may be a part): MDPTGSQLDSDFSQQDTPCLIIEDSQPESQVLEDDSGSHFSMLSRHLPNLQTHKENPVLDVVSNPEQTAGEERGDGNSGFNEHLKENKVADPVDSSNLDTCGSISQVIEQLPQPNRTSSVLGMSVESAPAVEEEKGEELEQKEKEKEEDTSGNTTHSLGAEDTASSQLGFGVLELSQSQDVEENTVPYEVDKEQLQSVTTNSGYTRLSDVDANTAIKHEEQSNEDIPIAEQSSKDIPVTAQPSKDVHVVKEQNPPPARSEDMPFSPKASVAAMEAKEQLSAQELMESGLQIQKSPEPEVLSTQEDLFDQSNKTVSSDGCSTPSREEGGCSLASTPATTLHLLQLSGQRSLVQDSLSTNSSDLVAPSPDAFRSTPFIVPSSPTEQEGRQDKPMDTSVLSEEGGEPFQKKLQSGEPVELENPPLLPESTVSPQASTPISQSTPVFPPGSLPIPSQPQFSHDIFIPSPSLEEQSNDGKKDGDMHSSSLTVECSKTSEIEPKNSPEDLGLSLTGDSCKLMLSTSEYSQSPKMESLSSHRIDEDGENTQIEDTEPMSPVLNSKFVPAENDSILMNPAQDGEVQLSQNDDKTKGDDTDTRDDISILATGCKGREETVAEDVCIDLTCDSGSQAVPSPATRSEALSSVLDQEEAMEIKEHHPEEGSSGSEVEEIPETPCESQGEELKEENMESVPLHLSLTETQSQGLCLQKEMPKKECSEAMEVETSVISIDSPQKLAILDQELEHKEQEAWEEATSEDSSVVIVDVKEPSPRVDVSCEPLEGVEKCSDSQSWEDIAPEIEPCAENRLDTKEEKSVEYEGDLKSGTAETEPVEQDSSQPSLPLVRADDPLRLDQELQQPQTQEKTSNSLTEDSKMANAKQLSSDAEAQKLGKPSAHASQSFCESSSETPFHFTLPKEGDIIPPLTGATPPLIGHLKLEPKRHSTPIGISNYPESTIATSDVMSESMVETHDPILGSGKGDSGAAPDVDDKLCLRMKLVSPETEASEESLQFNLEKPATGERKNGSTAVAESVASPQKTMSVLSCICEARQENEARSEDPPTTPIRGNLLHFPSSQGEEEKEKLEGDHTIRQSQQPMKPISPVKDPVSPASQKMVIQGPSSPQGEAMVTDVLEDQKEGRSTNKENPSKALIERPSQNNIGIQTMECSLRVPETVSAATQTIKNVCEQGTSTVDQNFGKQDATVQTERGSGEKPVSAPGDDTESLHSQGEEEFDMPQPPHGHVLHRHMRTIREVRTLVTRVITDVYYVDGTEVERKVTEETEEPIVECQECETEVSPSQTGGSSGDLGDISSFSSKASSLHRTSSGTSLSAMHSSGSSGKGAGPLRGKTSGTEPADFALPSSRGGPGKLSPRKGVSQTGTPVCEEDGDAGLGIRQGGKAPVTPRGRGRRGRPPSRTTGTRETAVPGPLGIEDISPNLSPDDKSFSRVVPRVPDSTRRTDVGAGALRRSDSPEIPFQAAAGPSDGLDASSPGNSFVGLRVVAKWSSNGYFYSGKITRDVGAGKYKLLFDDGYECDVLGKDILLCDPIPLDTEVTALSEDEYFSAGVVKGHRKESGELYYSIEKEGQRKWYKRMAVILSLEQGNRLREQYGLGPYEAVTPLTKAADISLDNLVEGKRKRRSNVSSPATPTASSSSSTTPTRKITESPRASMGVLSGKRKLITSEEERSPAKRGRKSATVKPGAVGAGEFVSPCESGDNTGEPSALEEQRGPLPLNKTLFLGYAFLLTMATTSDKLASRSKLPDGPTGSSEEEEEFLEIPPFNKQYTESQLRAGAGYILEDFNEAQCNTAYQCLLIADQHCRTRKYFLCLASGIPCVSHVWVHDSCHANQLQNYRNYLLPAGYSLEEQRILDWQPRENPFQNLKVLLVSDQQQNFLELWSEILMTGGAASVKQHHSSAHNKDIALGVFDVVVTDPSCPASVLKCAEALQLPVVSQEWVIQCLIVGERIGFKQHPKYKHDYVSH

- Kd [1]: 129 µM
- Kd [2]: 127 µM
- Kd (TP53-binding protein 1): Not Active
SMILES: CN(C)C[C@H]1C2CCC(c3ccccc3)(C2)[C@H]1O (stereo partly drawn)
